Assay results: patent US9855273B2, “Combination therapy for MDS” (priority 2013, dated 2018)

Experiments:
MDS/AML cell lines = test: Colony formation in methylcellulose, MDS/AML cell lines; format: cell-based, human
Method: (§2) The effect of IRAK-Inh on leukemic progenitor function was evaluated in methylcellulose containing IRAK-Inh. […] As an alternative approach, MDS/AML cells were pre-treated with IRAK-Inh for 24 hours and then plated in methylcellulose.

normal CD34+ cells = test: Colony formation in methylcellulose, normal CD34+ cells
Method: as §2

MDSL cells [1] = test: MDSL xenograft, cells pre-treated in vitro, NSG mice; format: in vivo
Method: Xenograftment of NOD/SCID-IL2Rγ(NSG) and NSG-hSCF/hGM-CSF/hIL3 (NSGS) MDSL cells (1×10^6-5×10^6) were injected into the tail veins of 8-week old sublethally irradiated ([…]) NSG or NSG animals engineered to express human SCF, GM-CSF, and IL3 (NSGS) as previously described (Wunderlich et al., 2010). Mice were monitored by performing complete blood counts (Drew Hemavet 950FS). Following red cell lysis, human MDSL cells were identified by hCD45-FITC staining. In vivo delivery of IRAK-Inh approach is adapted from previous reports (Yang et al., 2011): IRAK-Inh was diluted in DMSO (5 mM) and further dissolved in sterile phosphate buffered saline (PBS; pH 7.2). Animals were injected i.p. with 2.12 mg/kg IRAK-Inh 3× weekly.
To determine whether IRAK-Inh can delay human MDS-like disease in vivo, MDSL were pre-treated with IRAK-Inh (10 μM) for 24 hrs in vitro and subsequently injected intravenously (i.v.) into NSG (5×10^6 cells) and NSGS (1×10^6 cells) recipient mice (FIG. 4A). This approach permitted us to evaluate the cell autonomous effect of IRAK-Inh on MDS cell viability and engraftment without altering endogenous IRAK1 function in the mouse.

BCL2 = settings: 10 μM
Method: (§1) Total protein lysates were obtained from cells by lysing the samples in cold RIPA buffer (50 mM Tris-HCl, 150 mM NaCl, 1 mM EDTA, 1% Triton X-100 and 0.1% SDS), in the presence of PMSF, sodium orthovanadate, protease and phosphatase inhibitors. After being re-suspended in RIPA cells were briefly sonicated. Protein concentration was evaluated by a BCA assay (Pierce). For immunoprecipitation, TRAF6 or IRAK1 antibodies (2 μg) were added to cell lysates (10 mg) for 3 h at 4° C. and captured by the addition of Protein A/G Plus beads (sc-2003; Santa Cruz) as described before (Starczynowski et al., 2011). The immune complexes were washed with lysis buffer followed by the addition of SDS sample buffer. The bound proteins were separated by SDS-polyacrylamide gel electrophoresis, transferred to nitrocellulose membranes, and analyzed by immunoblotting. Western blot analysis was performed with the following antibodies: TRAF6 (sc-7221; Santa Cruz), IRAK1 (sc-7883; Santa Cruz), ubiquitin (sc-8017; Santa Cruz), IKKβ (2370; Cell Signaling Technology), GAPDH (5174; Cell Signaling Technology), p38 MAPK (9212; Cell Signaling Technology), phopho-p38 MAPK (4631; Cell Signaling Technology), phospho-IKKα/β (2697; Cell Signaling Technology), phospho-IRAK1 (S376) (PAB0497; Abnova), phospho-IRAK1 (T209) (A1074; AssaybioTech), phospho-ERK (4695; Cell Signaling Technology), Lck (2752; Cell Signaling Technology), phospho-Lck (Tyr505) (2751; Cell Signaling Technology), IRAK4 (4363; Cell Signaling Technology), phospho-IRAK4 (Thr345/Ser346) (7652; Cell Signaling Technology), Src (2102; Cell Signaling Technology), Phospho-Src (Tyr416) (2113; Cell Signaling Technology), BCL-2 (2870; Cell Signaling Technology) and Actin (4968; Cell Signaling Technology).

TRAF6/NF-κB signaling = system: TRAF6/NF-κB signaling
Method: as §1

IRAK1 (pIRAK1T209) = IRAK1 (pIRAK1T209) (Homo sapiens, UniProt P51617)
Method: as §1

pp60^Src = pp60^Src (Homo sapiens, UniProt P12931); settings: read-out: IC50 pp60Src; Powers et al., 2006; cited from earlier work
[2] = system: normal cord blood-derived CD34+ cells; test: Growth and viability of normal CD34+ cells; format: cell-based, human; settings: even high doses
Method: Acute myeloid leukemic cell lines, HL60, THP1, and TF-1 were purchased from the American Type Culture Collection. MOLM13 were purchased from AddexBio. The myelodysplastic cell line, MDS-L, was provided by Dr. Kaoru Tohyama (Kawasaki Medical School, Okayama, Japan) (Matsuoka et al., 2010). Cell-lines were cultured in RPMI 1640 medium with 10% FBS and 1% penicillin-streptomycin. Additionally, both the MDSL and TF-1 cell lines were cultured in the presence of 10 ng/mL human recombinant IL-3 (Stemcell Technologies). […] Human CD34+ UCB cells and primary MDS/AML cells were maintained in StemSpan Serum-Free Expansion Media (Stemcell Technologies) supplemented with 10 ng/mL of recombinant human stem cell factor (SCF), Flt3 ligand (Flt3L), thrombopoietin (TPO), IL-3, and IL-6 (Stemcell Technologies).

MDSL cells [3] = test: Cell cycle analysis by BrdU/7AAD; format: cell-based, human; settings: 10 μM, up to 6 days
Method: MDS/AML cell lines with hyperphosphorylated IRAK1 (FIG. 1D) were evaluated for sensitivity to IRAK-Inh. MDS/AML cell lines exposed to increasing concentration of IRAK-Inh were cultured for up to 6 days in vitro (FIG. 3A). […] In support of this observation, the inhibitory effect of IRAK-Inh on the cell lines correlated with the level of phosphorylated IRAK1 (R2=0.36; FIG. 3B). In parallel, cell viability was examined after 48 hrs of treatment with the IRAK-Inh. […] To investigate whether IRAK-Inh affects cell cycle progression, MDSL cells were treated with 10 μM IRAK-Inh for up to 6 days and evaluated by BrdU/7AAD staining (FIG. 3D).

Chain of IRAK1 (pIRAK1T209) (P51617 whole entry): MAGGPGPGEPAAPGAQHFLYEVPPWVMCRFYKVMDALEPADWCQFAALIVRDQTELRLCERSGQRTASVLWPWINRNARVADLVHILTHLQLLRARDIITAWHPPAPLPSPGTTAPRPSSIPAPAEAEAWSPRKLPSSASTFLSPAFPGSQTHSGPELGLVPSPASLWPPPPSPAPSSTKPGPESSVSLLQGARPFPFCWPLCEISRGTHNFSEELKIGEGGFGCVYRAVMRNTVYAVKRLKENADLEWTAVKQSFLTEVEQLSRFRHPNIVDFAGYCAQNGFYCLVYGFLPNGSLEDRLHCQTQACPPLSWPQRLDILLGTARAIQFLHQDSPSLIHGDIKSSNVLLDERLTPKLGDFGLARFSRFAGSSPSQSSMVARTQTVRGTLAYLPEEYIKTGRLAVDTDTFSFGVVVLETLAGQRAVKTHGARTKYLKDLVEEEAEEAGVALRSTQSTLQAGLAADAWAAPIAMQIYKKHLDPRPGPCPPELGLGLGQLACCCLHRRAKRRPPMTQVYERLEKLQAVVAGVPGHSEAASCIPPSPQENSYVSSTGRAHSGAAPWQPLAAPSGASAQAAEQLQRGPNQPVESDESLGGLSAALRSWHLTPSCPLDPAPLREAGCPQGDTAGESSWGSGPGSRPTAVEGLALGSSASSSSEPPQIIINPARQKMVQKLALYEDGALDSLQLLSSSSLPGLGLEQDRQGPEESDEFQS
Chain of pp60^Src (P12931 whole entry): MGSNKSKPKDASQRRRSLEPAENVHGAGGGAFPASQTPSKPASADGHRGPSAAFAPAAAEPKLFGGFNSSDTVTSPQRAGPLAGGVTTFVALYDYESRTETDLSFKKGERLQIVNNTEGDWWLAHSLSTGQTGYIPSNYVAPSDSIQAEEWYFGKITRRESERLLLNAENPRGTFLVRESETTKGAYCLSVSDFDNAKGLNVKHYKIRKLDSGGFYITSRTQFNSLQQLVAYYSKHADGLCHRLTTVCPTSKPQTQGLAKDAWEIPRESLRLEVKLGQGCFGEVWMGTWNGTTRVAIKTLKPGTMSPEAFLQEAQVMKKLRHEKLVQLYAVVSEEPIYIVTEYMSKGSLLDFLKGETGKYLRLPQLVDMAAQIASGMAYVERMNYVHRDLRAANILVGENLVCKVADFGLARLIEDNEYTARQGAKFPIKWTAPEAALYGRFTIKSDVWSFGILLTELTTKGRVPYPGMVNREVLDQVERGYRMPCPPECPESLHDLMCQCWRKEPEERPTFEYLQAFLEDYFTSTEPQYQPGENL

O=C(Nc1nc2ccccc2n1CCN1CCOCC1)c1cccc([N+](=O)[O-])c1 [IRAK-Inh, N-(2-morpholinylethyl)-2-(3-nitrobenzoylamido)-benzimidazole]
colony formation, methylcellulose containing inhibitor (MDS/AML cell lines; all MDS/AML cells, continuous treatment): significantly fewer colonies
colony formation after transient exposure (MDS/AML cell lines; pre-treated 24 hr, 10 μM, then plated): significantly fewer colonies
control CD34+ cell progenitor function (normal CD34+ cells): did not affect
colony formation, methylcellulose containing inhibitor (normal CD34+ cells; normal CD34+): equivalent number of colonies
median survival (MDSL cells [1]; MDSL pre-treated 10 μM 24 hrs, 5×10^6 cells i.v., control 68 days): 80 days
human MDSL graft (MDSL cells [1]; peripheral blood, 28 days post-transplant, control 8%): 2%
BCL2 expression (BCL2): increased in several of the cell lines examined
p100/p52 processing (non-canonical NF-κB) (TRAF6/NF-κB signaling; 10 μM for 24 hrs): completely blocked
pIKKα/IKKβ (TRAF6/NF-κB signaling; 10 μM for 24 hrs, vector- and TRAF6-expressing cells): reduced pIKKα/IKKβ
polyubiquitinated TRAF6 (TRAF6/NF-κB signaling; THP1, 10 μM, 24 hrs): reduced polyubiquitinated TRAF6
phosphorylated IRAK1 reduced by (IRAK1 (pIRAK1T209); 10 μM, 24 hrs, cell lines and patient marrow cells): ~70%
phosphorylation and K63-linked ubiquitination of immunoprecipitated IRAK1 (IRAK1 (pIRAK1T209); THP1, 10 μM, 24 hrs): reduced phosphorylation and K63-linked ubiquitination
pIRAK1T209 inhibited by (IRAK1 (pIRAK1T209); cells with lentiviral IRAK1 or TRAF6 overexpression): ~50%
kinases with structural homology to IRAK1 targeted in cells (IRAK1 (pIRAK1T209); malignant myeloid cells, IRAK1, IRAK4, Src, Lck immunoblots): only IRAK1 is a target
IC50 (pp60^Src): > 10 µM
proliferation of normal CD34+ cells [2]: not affected
proportion in G0/G1 (MDSL cells [3]): 62.7%±1.1
proportion of sub-G0 cells (MDSL cells [3]): 5.4%±0.3
viable cells in S phase (MDSL cells [3]): 4.3%±0.4
